The values below come from PubChem BioAssay (NCI).

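These data come from cells grown in 96-well plates and exposed to compound for 48 hours at five concentrations. The concentration for full growth arrest is given as TGI.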

Test systems include SF-268 CNS; RXF 393 renal; ACHN renal; NCI-H226 lung; SK-OV-3 ovarian; NCI/ADR-RES ovarian; 786-0 renal; SW-620 colon; NCI-H522 lung; OVCAR-3 ovarian; SN12C renal; MALME-3M melanoma; MOLT-4 leukemia; NCI-H460 lung; MDA-MB-435; KM12 colon; OVCAR-5 ovarian; HS 578T breast; HL-60(TB) leukemia.
Test in all cases: NCI anticancer screen, dose series, 48 h

For `CC12CCCCC1=C(F)C(F)(F)S2` (stereo not drawn), the TGI was > 100 µM in the assay with SF-268 CNS; > 51.8 µM in the assay on RXF 393 renal; 51.6 µM with ACHN renal; > 100 µM with NCI-H226 lung; > 100 µM in the assay with SK-OV-3 ovarian; > 100 µM in the assay with NCI/ADR-RES ovarian. In addition, the TGI with 786-0 renal is 45.9 µM; in the assay on SW-620 colon, > 73.7 µM; in the assay on NCI-H522 lung, 45.3 µM; with OVCAR-3 ovarian it was 48 µM; in the assay on SN12C renal, > 75.2 µM; with MALME-3M melanoma, 58.6 µM. The TGI in the assay with MOLT-4 leukemia was 36 µM; with NCI-H460 lung, > 100 µM; in the assay with MDA-MB-435, > 86.6 µM; with KM12 colon it was > 100 µM; in the assay with OVCAR-5 ovarian, 97.7 µM; with HS 578T breast it was > 80.7 µM. Also, the TGI with HL-60(TB) leukemia was found to be 15.3 µM.

As to `CC1CN=C(Nc2cccc(F)c2)S1` (stereo not drawn), the TGI with SF-268 CNS, in the assay on RXF 393 renal, in the assay on ACHN renal, in the assay with NCI-H226 lung, with SK-OV-3 ovarian and with NCI/ADR-RES ovarian was > 100 µM each time. Further, the TGI in the assay on 786-0 renal, with SW-620 colon, in the assay with NCI-H522 lung, in the assay on OVCAR-3 ovarian, in the assay on SN12C renal and in the assay with MALME-3M melanoma was > 100 µM in each case. Besides, the TGI in the assay with MDA-MB-435, with KM12 colon, in the assay with OVCAR-5 ovarian, in the assay with HS 578T breast and in the assay on HL-60(TB) leukemia was > 100 µM throughout.

As to `Nc1ccccc1C#CC(=O)c1cccc(C(F)(F)F)c1`, the TGI is 5.88 µM in the assay with SF-268 CNS; 5.07 µM in the assay on RXF 393 renal; 18 µM in the assay on NCI-H226 lung; 28.6 µM in the assay with SK-OV-3 ovarian; 47.3 µM with NCI/ADR-RES ovarian; 4.68 µM in the assay with 786-0 renal. The TGI came to 5 µM in the assay with SW-620 colon; 2.36 µM in the assay with NCI-H522 lung; 14.7 µM with OVCAR-3 ovarian; 4.81 µM in the assay on SN12C renal; 22.1 µM in the assay with MALME-3M melanoma; 47.6 µM with NCI-H460 lung. The TGI with MDA-MB-435 was 6.65 µM; with KM12 colon, 82.1 µM; in the assay on OVCAR-5 ovarian, 23.7 µM; in the assay with HS 578T breast, 6.47 µM; in the assay with HL-60(TB) leukemia, 41.1 µM.

In the case of `O=C(c1ccccc1)N1C(=O)N(c2ccccc2)C(=Nc2ccccc2)C1=Nc1ccccc1`, the TGI in the assay on SF-268 CNS, with RXF 393 renal, with ACHN renal, in the assay with NCI-H226 lung, with SK-OV-3 ovarian and in the assay with NCI/ADR-RES ovarian was > 100 µM each time. Also, the TGI in the assay on 786-0 renal, in the assay on SW-620 colon, in the assay on NCI-H522 lung, with SN12C renal, in the assay with MALME-3M melanoma and with MOLT-4 leukemia was > 100 µM throughout. Also, the TGI in the assay with NCI-H460 lung, with MDA-MB-435, in the assay on KM12 colon, in the assay with OVCAR-5 ovarian, in the assay on HS 578T breast and in the assay with HL-60(TB) leukemia was > 100 µM throughout.

Take `N=c1oc2ccccc2cc1-c1nc2ccccc2[nH]1`: the TGI with SF-268 CNS is > 100 µM; in the assay on RXF 393 renal, > 100 µM; in the assay on ACHN renal it was 45.4 µM; in the assay on NCI-H226 lung it was > 100 µM; with SK-OV-3 ovarian, > 100 µM; in the assay on NCI/ADR-RES ovarian, 64.2 µM. The TGI is 28.8 µM with 786-0 renal; > 100 µM in the assay with SW-620 colon; 4.57 µM in the assay on NCI-H522 lung; > 100 µM in the assay on SN12C renal; 72 µM in the assay with MALME-3M melanoma; > 100 µM in the assay on MOLT-4 leukemia. Besides, the TGI in the assay on NCI-H460 lung is > 100 µM; in the assay on MDA-MB-435, 48.2 µM; in the assay on KM12 colon it was > 100 µM; with OVCAR-5 ovarian, > 100 µM; with HS 578T breast it was > 100 µM; in the assay with HL-60(TB) leukemia, 87 µM.

As to `CO/N=C\c1ccc2c(c1)Sc1ccccc1O2`, the TGI in the assay on SF-268 CNS, in the assay on RXF 393 renal, in the assay with ACHN renal, in the assay with NCI-H226 lung, in the assay on SK-OV-3 ovarian and with NCI/ADR-RES ovarian was > 100 µM throughout. In addition, the TGI with 786-0 renal, with SW-620 colon, in the assay on OVCAR-3 ovarian, in the assay on SN12C renal, in the assay on MALME-3M melanoma and in the assay on MOLT-4 leukemia was > 100 µM in each case. The TGI in the assay with NCI-H460 lung was > 100 µM; in the assay on MDA-MB-435 it was > 100 µM; with KM12 colon, > 100 µM; with OVCAR-5 ovarian, > 100 µM; in the assay with HS 578T breast it was 97.3 µM; in the assay on HL-60(TB) leukemia, > 100 µM.

On to `COc1ccc2cc(CNCCCCCCCCNCc3ccc4cc(OC)ccc4c3)ccc2c1`, for which the TGI in the assay on RXF 393 renal was > 100 µM; in the assay with ACHN renal, 10.3 µM; in the assay with NCI-H226 lung, > 100 µM; with NCI/ADR-RES ovarian, > 100 µM; with 786-0 renal, > 100 µM; with SW-620 colon it was 4.38 µM. The TGI with NCI-H522 lung was 69.4 µM; in the assay with OVCAR-3 ovarian it was 9.86 µM; in the assay with MOLT-4 leukemia, 7.5 µM; in the assay with NCI-H460 lung, 33.9 µM; in the assay on MDA-MB-435, 9.83 µM; with OVCAR-5 ovarian, 10.1 µM. In addition, the results for the TGI in the assay on HS 578T breast and in the assay with HL-60(TB) leukemia were > 20.8 µM and 15.2 µM, respectively.

`O=C1/C(=C\c2ccc(Br)cc2)CCCc2ccccc21`: the TGI was 37.1 µM with SF-268 CNS; 43.3 µM in the assay with RXF 393 renal; 30.6 µM with ACHN renal; 28.6 µM in the assay on NCI-H226 lung; > 100 µM in the assay on SK-OV-3 ovarian; 27.2 µM in the assay on NCI/ADR-RES ovarian. Further, the TGI with 786-0 renal was 27.8 µM; in the assay with SW-620 colon, 43 µM; with OVCAR-3 ovarian, 65.1 µM; with SN12C renal it was 32.1 µM; in the assay with MOLT-4 leukemia, 58.5 µM; in the assay with NCI-H460 lung, 34 µM. Further, the TGI was 61.5 µM in the assay on MDA-MB-435; 29 µM in the assay with KM12 colon; > 100 µM with OVCAR-5 ovarian; 49 µM in the assay with HS 578T breast; 69 µM in the assay with HL-60(TB) leukemia.
